Experimental findings from ChEMBL document CHEMBL5465560, “Selectivity Literature for EUbOPEN Chemogenomic Library” (2024) are described below.

Assay [1] has as its target Glycogen synthase kinase-3 beta (Homo sapiens, UniProt P49841). The experiment in a line: Selectivity interaction (Rxn Biology Kinase assay) EUB0001632a GSK3B. The note with it: at 10 µM.
Assay [2] deals with T1, Serine/threonine-protein kinase 17B (Homo sapiens) (UniProt O94768).
T1 sequence (whole entry): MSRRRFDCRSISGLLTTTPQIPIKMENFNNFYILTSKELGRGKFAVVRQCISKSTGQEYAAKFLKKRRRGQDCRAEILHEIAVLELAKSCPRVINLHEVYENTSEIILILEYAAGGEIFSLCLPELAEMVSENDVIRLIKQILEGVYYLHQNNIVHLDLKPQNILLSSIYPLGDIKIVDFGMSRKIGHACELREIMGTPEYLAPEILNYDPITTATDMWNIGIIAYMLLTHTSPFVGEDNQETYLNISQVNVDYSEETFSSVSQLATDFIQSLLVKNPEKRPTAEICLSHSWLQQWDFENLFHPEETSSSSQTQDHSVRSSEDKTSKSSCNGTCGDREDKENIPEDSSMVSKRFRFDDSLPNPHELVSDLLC
Description: Selectivity interaction (KinomeScan (DiscoverX)) EUB0000607a STK17B. The note with it: at 10 µM.

Assay [3] concerns the target Phosphatidylinositol 4-phosphate 5-kinase type-1 gamma (Homo sapiens) (UniProt O60331). Description: Selectivity interaction (KinomeScan (DiscoverX)) EUB0001619a PIP5K1C. The note with it: at 1 µM.
Another assay concerns the target Focal adhesion kinase 1 (Homo sapiens, UniProt Q05397).
For assay [4], the target named is T2, Protein kinase C epsilon type (Homo sapiens) (UniProt Q02156).
T2 sequence (whole entry): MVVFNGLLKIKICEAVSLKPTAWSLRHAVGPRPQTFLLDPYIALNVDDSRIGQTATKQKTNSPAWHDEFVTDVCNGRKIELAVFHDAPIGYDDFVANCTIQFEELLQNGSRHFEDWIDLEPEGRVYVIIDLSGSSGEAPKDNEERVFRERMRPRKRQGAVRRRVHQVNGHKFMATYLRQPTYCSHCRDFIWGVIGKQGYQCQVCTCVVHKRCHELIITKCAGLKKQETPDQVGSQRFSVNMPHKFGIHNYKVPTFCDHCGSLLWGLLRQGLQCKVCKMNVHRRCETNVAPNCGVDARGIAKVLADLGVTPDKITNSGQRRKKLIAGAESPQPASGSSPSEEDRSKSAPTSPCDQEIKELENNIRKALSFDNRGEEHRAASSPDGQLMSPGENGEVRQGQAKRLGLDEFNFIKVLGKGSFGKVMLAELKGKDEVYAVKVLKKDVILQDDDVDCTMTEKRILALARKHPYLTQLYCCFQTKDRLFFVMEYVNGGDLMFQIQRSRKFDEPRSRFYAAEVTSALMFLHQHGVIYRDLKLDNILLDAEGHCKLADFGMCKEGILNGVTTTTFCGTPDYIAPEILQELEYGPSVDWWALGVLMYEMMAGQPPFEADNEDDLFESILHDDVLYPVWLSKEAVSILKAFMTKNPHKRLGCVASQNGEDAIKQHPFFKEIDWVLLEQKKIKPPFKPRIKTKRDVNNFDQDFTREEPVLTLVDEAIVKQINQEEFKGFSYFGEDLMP
Description: Selectivity interaction (KinomeScan (DiscoverX)) EUB0000695a PRKCE. The note with it: at 100 nM.

Assay [5] deals with T3, Activin receptor type-1 (Homo sapiens) (UniProt Q04771).
T3 sequence (whole entry): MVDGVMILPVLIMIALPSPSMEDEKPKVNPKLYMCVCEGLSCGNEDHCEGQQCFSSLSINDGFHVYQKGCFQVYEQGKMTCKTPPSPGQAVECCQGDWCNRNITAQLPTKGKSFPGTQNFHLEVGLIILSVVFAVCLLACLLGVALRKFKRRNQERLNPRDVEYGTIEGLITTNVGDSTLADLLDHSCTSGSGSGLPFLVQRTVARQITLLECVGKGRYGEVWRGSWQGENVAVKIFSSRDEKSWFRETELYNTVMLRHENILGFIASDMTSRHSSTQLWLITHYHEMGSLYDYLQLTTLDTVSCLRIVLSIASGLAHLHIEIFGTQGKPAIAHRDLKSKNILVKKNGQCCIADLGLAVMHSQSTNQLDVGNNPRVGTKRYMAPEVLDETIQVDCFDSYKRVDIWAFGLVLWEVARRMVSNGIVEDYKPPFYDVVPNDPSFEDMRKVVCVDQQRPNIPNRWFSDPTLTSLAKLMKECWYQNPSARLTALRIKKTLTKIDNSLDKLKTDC
Description: Selectivity interaction (ProQinase) EUB0000171b ACVR1.

Assay [6] has as its target T4, Activin receptor type-1B (Homo sapiens) (UniProt P36896).
T4 sequence (whole entry): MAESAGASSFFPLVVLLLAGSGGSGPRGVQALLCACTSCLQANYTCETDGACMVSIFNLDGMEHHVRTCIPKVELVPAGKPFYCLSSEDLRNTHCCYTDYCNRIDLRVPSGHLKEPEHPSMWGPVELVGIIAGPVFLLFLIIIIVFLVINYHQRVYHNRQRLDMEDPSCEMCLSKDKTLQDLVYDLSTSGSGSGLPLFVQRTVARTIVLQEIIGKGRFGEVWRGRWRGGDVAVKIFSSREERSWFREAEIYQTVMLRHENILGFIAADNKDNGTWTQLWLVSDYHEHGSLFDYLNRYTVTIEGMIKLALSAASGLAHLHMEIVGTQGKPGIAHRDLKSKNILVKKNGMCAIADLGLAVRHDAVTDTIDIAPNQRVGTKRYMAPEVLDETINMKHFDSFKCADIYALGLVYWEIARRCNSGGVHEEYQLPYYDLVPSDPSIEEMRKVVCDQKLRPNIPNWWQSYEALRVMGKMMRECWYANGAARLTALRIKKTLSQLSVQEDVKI
Description: Selectivity interaction (KinomeScan (DiscoverX)) EUB0000092b ACVR1B. The settings on record: at 10 µM.

Assay [7] concerns the target SRSF protein kinase 2 (Homo sapiens) (UniProt P78362). The experiment in a line: Selectivity interaction (KinomeScan (DiscoverX)) EUB0000045b SRPK2.

SRSF protein kinase 2 (Homo sapiens), sequence (P78362 whole entry, looked up): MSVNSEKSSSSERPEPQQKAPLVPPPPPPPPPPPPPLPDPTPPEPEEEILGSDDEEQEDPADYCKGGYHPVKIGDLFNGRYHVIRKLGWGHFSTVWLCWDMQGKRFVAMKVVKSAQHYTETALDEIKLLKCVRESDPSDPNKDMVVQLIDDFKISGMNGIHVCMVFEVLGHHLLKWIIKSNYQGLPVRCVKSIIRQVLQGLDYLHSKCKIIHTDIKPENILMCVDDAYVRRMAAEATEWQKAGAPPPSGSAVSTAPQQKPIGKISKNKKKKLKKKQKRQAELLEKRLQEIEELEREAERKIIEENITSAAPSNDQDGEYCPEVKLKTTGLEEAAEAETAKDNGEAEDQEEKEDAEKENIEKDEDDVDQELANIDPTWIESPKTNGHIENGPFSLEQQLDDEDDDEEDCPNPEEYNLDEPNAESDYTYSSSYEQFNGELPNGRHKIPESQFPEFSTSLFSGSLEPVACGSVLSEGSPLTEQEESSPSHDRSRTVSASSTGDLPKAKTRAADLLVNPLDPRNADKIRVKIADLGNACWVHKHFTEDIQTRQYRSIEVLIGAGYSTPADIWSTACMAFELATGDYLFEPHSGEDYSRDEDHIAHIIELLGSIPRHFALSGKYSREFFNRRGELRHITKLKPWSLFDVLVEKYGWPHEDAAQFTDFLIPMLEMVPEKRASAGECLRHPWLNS
Focal adhesion kinase 1, sequence (Q05397 whole entry): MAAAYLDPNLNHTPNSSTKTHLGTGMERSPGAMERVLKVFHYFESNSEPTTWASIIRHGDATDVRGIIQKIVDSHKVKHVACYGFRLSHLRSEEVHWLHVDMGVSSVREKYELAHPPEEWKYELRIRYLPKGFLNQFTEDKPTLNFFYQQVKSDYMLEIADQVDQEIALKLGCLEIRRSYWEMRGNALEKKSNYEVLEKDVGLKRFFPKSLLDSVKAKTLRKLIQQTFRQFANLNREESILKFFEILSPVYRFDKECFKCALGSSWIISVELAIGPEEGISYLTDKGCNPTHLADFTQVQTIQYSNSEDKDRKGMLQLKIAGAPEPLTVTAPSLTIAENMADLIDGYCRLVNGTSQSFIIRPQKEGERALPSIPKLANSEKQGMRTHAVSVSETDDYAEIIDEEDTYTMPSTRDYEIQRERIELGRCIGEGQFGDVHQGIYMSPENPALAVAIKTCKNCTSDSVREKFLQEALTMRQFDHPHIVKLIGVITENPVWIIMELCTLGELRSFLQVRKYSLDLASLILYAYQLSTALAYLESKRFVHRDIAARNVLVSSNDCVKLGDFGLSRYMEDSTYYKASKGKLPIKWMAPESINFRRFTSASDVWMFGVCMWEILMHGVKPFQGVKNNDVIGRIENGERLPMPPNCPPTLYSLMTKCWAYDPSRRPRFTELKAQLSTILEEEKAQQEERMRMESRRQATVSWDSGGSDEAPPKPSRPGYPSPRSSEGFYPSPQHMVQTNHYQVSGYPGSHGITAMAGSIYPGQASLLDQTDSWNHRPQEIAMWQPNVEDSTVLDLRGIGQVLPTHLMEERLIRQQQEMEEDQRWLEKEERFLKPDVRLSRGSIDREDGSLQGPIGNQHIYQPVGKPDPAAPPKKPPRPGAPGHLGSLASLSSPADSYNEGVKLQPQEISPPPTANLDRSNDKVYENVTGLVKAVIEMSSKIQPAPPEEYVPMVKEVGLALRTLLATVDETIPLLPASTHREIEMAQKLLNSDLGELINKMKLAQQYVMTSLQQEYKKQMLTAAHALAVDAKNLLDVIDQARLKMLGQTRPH
Phosphatidylinositol 4-phosphate 5-kinase type-1 gamma (Homo sapiens), sequence (O60331 whole entry): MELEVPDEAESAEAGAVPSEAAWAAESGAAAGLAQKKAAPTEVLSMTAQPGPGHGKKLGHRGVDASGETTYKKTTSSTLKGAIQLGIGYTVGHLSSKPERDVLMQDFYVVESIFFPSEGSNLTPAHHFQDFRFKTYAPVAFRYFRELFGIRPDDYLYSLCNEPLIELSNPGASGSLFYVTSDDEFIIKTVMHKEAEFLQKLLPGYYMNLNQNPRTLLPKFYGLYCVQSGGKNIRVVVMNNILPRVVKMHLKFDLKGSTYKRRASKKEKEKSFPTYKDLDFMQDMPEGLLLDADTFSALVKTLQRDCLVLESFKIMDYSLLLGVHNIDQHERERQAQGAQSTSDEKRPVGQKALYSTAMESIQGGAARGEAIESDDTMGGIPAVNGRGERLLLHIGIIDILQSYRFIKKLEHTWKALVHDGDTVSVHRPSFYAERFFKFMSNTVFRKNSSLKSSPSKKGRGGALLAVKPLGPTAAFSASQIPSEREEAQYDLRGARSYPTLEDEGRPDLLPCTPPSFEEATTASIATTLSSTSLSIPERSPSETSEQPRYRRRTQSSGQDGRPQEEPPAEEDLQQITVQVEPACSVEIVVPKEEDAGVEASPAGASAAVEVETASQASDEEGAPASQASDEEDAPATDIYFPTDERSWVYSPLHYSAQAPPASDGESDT
Glycogen synthase kinase-3 beta, sequence (P49841 whole entry, looked up): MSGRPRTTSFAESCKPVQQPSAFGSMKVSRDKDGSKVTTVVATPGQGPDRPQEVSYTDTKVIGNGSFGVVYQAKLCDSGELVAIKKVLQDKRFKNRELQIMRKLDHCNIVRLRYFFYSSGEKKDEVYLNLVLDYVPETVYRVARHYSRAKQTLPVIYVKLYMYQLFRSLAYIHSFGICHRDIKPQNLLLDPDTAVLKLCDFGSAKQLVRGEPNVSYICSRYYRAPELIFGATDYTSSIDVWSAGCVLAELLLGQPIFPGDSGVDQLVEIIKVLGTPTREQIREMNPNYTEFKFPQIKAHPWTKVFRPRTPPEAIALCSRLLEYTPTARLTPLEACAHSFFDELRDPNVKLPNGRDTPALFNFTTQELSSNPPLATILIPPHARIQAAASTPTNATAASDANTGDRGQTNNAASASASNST

In turn, `Cn1cc(-n2cnc3c(NCc4nc5cc(Cl)c(Cl)cc5[nH]4)nc(N4CCOCC4)nc32)cn1` yielded a % of inhibition in assay [1] of 96.5%.
In assay [2], `CNC(=O)Nc1ccc(-c2nc(N3CC4CCC(C3)O4)c3cnn(C4CCC5(CC4)OCCO5)c3n2)cc1` yielded a % of control of 100%.
Turning to `N#Cc1cccc(-c2c[nH]c3ncnc(N4CCOCC4)c23)c1`, the % of control in assay [3] stood at 70%.
A word on the IC50: it is the point on the concentration scale where inhibition reaches its midpoint. Consider `CCc1cccc(CC)c1NC(=O)c1nn(C)c2c1CCc1cnc(Nc3ccc(C(=O)NC4CCN(C)CC4)cc3OC(F)(F)F)nc1-2`, for which the IC50 on Focal adhesion kinase 1 was over 10 µM.
As for `Cc1cc(F)c(C(=O)Nc2cccc(-c3nncn3C(C)C)n2)cc1-n1cnc(C2CC2)c1`, the % of control in assay [4] was 97%.
As to `C=CC(=O)Nc1cccc(C(=O)Nc2ccc(Nc3cc(-c4[nH]c(SC)nc4C)ccn3)cc2)c1`, the % of control in assay [5] (at 1 µM) was found to be 85%; in assay [5] (at 5 µM), 54%.
As to `CCC(=O)N1CCN(c2ccc(-n3c(=O)ccc4cnc5ccc(-c6cnc7ccccc7c6)cc5c43)cc2C(F)(F)F)CC1`, in assay [6], the % of control turned out to be 45%.
In the case of `C=CC(=O)Nc1cc(-n2c(=O)ccc3cnc4ccc(-c5ccc(NS(C)(=O)=O)cc5)cc4c32)ccc1C`, the % of control in assay [7] (at 1 µM) was 100%; in assay [7] (at 10 µM) it was 81%.
